In patent publication US20250270224A1, “POLYCYCLIC POLY(ADP-RIBOSE) POLYMERASE SELECTIVE INHIBITOR” (XUANZHU BIOPHARMACEUTICAL CO., LTD., priority 2022, published 2025):

Legend:
PARP1 = PARP1 (Homo sapiens (Human), UniProt P09874); test: In-vitro enzymatic activity, PARP1 (histone-coated plate, chemiluminescence detection); type: biochemical; details: class symbols
MDA-MB-436 cells = test: In-vitro cytological inhibitory activity (CelltiterGlo assay), 7 days culture; type: cell-based; details: BRCA1 mutated human breast cancer cells, CTG
Procedure: The MDA-MB-436 cells were adherent cells, and the culture solution was DMEM+10% FBS+1% ITS-G+16 μg/ml glutathione.
Cells in the logarithmic growth phase were collected and counted by a […]. The cell viability was detected by a trypan blue exclusion method, and the cell viability was kept over 90%. The cell concentration was adjusted to be in a proper range, and 90 μL of cell suspension was added into a 96-well plate respectively.
The stock solutions of the test compounds were diluted by 10 times from 10 mM to 1 mM with DMSO, and then continuously gradiently diluted by 3 times with DMSO into a total of 9 concentrations.
10 μL of compound working stock solution was added into each well in a 96-well plate inoculated with cells (diluted by 10 times, the final concentration of DMSO was 0.1%).
Solvent control: 0.1% DMSO (2 μL of DMSO was diluted with 198 μL of culture solution, and then 10 μL of the diluted solution was added into the well plate).
Blank control: the 96-well plate was detected and read 0 hour after the addition.
2.5 the 96-Well Plate was Placed in a 5% CO2 Cell Incubator at 37° C. To Culture for 7 Days
A CTG reagent was thawed and the 96-well plate was equilibrated to room temperature for 30 minutes, 60 μL of reagent (Celltiter Glo assay kit) was added into each well and shaken by a shaker for 2 minutes to mix uniformly (in the dark), and the mixture was incubated at room temperature for 20 minutes (in the dark). Light signal values were read by a multi-functional microplate reader.

PARP2 = PARP2 (Homo sapiens (Human), UniProt Q9UGN5); test: In-vitro enzymatic activity, PARP2 (histone-coated plate, chemiluminescence detection); type: biochemical; details: class symbols
Sequence of PARP2 (Q9UGN5 whole entry): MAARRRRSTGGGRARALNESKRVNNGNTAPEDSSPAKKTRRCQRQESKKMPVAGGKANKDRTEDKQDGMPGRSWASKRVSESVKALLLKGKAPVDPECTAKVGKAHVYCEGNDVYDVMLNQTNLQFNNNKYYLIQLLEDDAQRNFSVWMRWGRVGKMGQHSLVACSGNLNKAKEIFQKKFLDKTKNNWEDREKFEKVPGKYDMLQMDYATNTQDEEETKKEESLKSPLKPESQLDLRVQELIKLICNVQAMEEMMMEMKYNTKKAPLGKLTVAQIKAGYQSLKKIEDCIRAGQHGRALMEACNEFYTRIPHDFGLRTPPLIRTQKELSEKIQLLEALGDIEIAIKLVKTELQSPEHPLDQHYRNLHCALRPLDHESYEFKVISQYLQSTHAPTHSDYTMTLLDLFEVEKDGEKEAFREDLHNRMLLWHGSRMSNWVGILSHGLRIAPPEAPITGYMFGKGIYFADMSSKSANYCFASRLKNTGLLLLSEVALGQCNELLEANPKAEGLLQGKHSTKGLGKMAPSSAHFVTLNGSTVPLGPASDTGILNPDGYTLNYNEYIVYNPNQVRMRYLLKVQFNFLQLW

Sequence of PARP1 (P09874 whole entry): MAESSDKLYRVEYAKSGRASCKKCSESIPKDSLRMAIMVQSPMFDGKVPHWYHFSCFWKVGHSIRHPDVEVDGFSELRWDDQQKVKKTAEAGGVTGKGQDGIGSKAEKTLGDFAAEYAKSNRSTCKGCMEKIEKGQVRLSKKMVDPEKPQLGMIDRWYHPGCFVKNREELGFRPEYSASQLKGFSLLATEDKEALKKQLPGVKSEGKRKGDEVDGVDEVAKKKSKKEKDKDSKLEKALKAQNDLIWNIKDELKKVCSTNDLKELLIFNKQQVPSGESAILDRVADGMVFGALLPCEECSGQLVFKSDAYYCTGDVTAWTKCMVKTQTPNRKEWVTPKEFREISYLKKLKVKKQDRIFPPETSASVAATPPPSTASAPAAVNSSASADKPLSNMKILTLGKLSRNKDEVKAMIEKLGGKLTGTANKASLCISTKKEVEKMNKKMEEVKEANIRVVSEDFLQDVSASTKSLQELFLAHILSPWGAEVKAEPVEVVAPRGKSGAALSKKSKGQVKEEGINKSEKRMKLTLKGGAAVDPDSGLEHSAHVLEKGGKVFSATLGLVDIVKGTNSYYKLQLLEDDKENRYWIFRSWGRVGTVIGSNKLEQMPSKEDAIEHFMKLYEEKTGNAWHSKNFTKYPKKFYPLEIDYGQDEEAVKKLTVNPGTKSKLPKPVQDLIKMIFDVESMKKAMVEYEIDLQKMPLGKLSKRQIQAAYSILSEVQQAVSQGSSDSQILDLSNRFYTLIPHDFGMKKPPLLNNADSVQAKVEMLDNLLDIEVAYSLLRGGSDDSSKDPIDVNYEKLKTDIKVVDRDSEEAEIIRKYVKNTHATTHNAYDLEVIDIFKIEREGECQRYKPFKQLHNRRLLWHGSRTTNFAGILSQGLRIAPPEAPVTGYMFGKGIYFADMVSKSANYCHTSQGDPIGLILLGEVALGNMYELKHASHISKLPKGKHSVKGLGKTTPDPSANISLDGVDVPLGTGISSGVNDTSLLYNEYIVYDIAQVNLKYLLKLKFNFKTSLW

Row | Compound | IC50 (PARP1) [nM] | IC50 (MDA-MB-436 cells; MDA-MB-436, 168 h) [nM] | IC50 (PARP2) [nM] | IC50 (MDA-MB-436 cells) [nM]
1 | CNC(=O)c1ccc(N2CCN(Cc3cc4cc(C)n5c4c(c3F)NC(=O)C5C)CC2)c(F)n1 (centres unmarked) [Compound 34, 6-fluoro-5-(4-((9-fluoro-3,5-dimethyl-2-oxo-2,3-dihydro-1H-pyrrolo[1,2,3-de]quinoxaline-8-yl)methyl)piperazine-1-yl)-N-methylpyridine formamide] | 1 to 3 | 13.6 | 100 to 1000 | –
2 | CNC(=O)c1ccc(N2CCN(Cc3cc4c5c(cnn5CC(=O)N4)c3)CC2)c(F)n1 [Compound 8, 6-fluoro-N-methyl-5-(4-((2-oxo-2,3-dihydro-1H-pyrazolo[1,5,4-de]quinoxaline-8-yl)methyl)piperazine-1-yl)picolinamide] | – | 129 | – | –
3 | CNC(=O)c1ccc(N2CCN(Cc3cc4c5c(c(C)c(=O)[nH]c5c3F)CC4)CC2)c(F)n1 [Compound 6, 6-fluoro-5-(4-((8-fluoro-3-methyl-2-oxo-1,2,4,5-tetrahydrocyclopentyl[de]quinoline-7-yl)methyl)piperazine-1-yl)-N-methylpicolinamide] | – | – | – | 2
4 | 5-(4-((6,9-difluoro-3-methyl-2-oxo-2,3-dihydro-1H-pyrrolo[1,2,3-de]quinoxaline-8-yl)methyl)piperazine-1-yl)-6-fluoro-N-methylpyridine Formamide [Compound 38] | 1 to 3 | – | 100 to 1000 | 15.2
5 | CNC(=O)c1ccc(N2CCN(Cc3cc4c5c(ccn5C(C)(C)C(=O)N4)c3)CC2)c(F)n1 [Compound 46, 5-(4-((3,3-dimethyl-2-oxo-2,3-dihydro-1H-pyrrolo[1,2,3-de]quinoxaline-8-yl)methyl)piperazine-1-yl)-6-fluoro-N-methylpicolinamide] | 3 to 10 | 9.2 | 100 to 1000 | –
6 | CNC(=O)c1ccc(N2CCN(Cc3cc4c5c(c(C)c(=O)[nH]c5c3)CCC4)CC2)c(F)n1 [Compound 25, 6-fluoro-N-methyl-5-(4-((3-methyl-2-oxo-2,4,5,6-tetrahydro-1H-benzo[de]quinoline-8-yl)methyl)piperazine-1-yl)picolinamide] | < 1 | 15.8 | 10 to 100 | –
7 | CNC(=O)c1ccc(N2CCN(Cc3cc4c5c(c3)c(F)nn5[C@@H](C)C(=O)N4)CC2)c(F)n1 [Compound 49-1, (S)-6-fluoro-5-(4-((6-fluoro-3-methyl-2-oxo-2,3-dihydro-1H-pyrazolo[1,5,4-de]quinoxaline-8-yl)methyl)piperazine-1-yl)-N-methylpicolinamide] | 1 to 3 | 3.6 | 100 to 1000 | –
8 | (S)-6-fluoro-5-(4-((9-fluoro-3-methyl-2-oxo-2,3-dihydro-1H-pyrrolo[1,2,3-de]quinoxaline-8-yl) methyl)piperazine-1-yl)-N-methylpyridine formamide [Compound 35] | – | – | – | 46.5
9 | CNC(=O)c1ccc(N2CCN(Cc3cc4c5c(c3)c(F)nn5[C@H](C)C(=O)N4)CC2)c(F)n1 [Compound 49-2, (R)-6-fluoro-5-(4-((6-fluoro-3-methyl-2-oxo-2,3-dihydro-1H-pyrazolo[1,5,4-de]quinoxaline-8-yl)methyl)piperazine-1-yl)-N-methylpicolinamide] | < 1 | 2.9 | 100 to 1000 | –
10 | CNC(=O)c1ccc(N2CCN(Cc3cc4c5c(ccn5CC(=O)N4)c3)CC2)c(F)n1 [Compound 11, 6-fluoro-N-methyl-5-(4-((2-oxo-2,3-dihydro-1H-pyrrolo[1,2,3-de]quinoxaline-8-yl)methyl)piperazine-1-yl)picolinamide] | – | 21.5 | – | –
11 | CNC(=O)c1ccc(N2CCN(Cc3cc4c5c(c(C)c(=O)[nH]c5c3)CC4)CC2)c(F)n1 [Compound 31, 6-fluoro-N-methyl-5-(4-((3-methyl-2-oxo-1,2,4,5-tetrahydrocyclopentane[de]quinoline-7-yl)methyl)piperazine-1-yl)pyridine carboxamide] | < 1 | – | 10 to 100 | 2.2
12 | CNC(=O)c1ccc(N2CCN(Cc3cc4ccn5c4c(c3F)NC(=O)[C@H]5C)CC2)c(F)n1 [Compound 36, (R)-6-fluoro-5-(4-((9-fluoro-3-methyl-2-oxo-2,3-dihydro-1H-pyrrolo[1,2,3-de]quinoxaline-8-yl)methyl)piperazine-1-yl)-N-methylpyridine formamide] | – | 11.1 | – | –
